According to PMC10974995 (Pathogens, 2024):
Values after ≈ are worked out from the molar mass of the structure shown. Like-named read-outs stand apart in the source and are kept apart here.

Experiments:
boar sperm [1] = test system: boar sperm
[2] = test system: PK-15 (porcine kidney epithelial cells) and/or FFL (feline fetus lung cells)
boar sperm [3] = experiment: cells
[4] = test system: PK-15 (porcine kidney epithelial cells) and/or FFL (feline fetus lung cells); experiment: cells; details: Sus scrofa
Rat = details: po; cited from earlier work
[5] = test system: differentiated PK-15 cells; experiment: cells; details: Sus scrofa, PK-15, read-out: Mitochondrial Toxicity 1d (EC50, acceleration of glycolysis and depolarization of mitochondria)
[6] = test system: differentiated PK-15 cells
Fish = details: cited from earlier work
[7] = 72 h, read-out: EC50 Ex Vivo BSMI 1–3d
[8] = PK-15, 48 h, read-out: EC50 In Vitro ICP 2d
[9] = read-out: EC50 Ex Vivo BSMI, positive controls, mean of 10 or 11 measurements
[10] = PK-15, read-out: EC50 In Vitro ICP, positive controls, mean of 10 or 11 measurements

Molecule	Ex Vivo BSMI 1–3d, toxic (+) / nontoxic (−), microbial metabolites (boar sperm [1]; pig (boar))	In Vitro ICP 2d, toxic (+) / nontoxic (−), microbial metabolites [2]	EC50 (boar sperm [3]; [7]) [µg/mL]	EC50 [4, 8] [µg/mL]	In Vivo (toxicity to experimental animals), mycotoxins and fungal metabolites (Rat)	Toxicity In Vivo LD50 Rat p.o. (Rat)	EC50 Ex Vivo BSMI 1–3d (boar sperm [1])	EC50 In Vitro ICP 2d [2]	also measured
CC1(C)C=Cc2c(ccc3c2[N+]([O-])=C2C3=C[C@@]34NC(=O)[C@]5(CCCN5C3=O)C[C@H]4C2(C)C)O1 [Avrainvillamide]	(+) 0.2 (key: (+): For the microbial metabolites, EC50 < 5 µg mL^−1 and <10 µg mL^−1 were considered as toxic in the BSMI and ICP assays, respectively; nontoxic as (−))	(+) 0.2 (key: (+): For the microbial metabolites, EC50 < 5 µg mL^−1 and <10 µg mL^−1 were considered as toxic in the BSMI and ICP assays, respectively; nontoxic as (−))	0.2 (≈ 0.449 µM)	0.2 (≈ 0.449 µM)					
C/C1=C\[C@@H](C)C/C=C/[C@H]2[C@@H]3O[C@]3(C)[C@@H](C)[C@H]3[C@H](Cc4c[nH]c5ccccc45)NC(=O)[C@]32C(=O)/C=C/C(=O)[C@@H]1O [Chaetoglobosin A]	(+) <1 (key: (+): For the microbial metabolites, EC50 < 5 µg mL^−1 and <10 µg mL^−1 were considered as toxic in the BSMI and ICP assays, respectively; nontoxic as (−))	(+) 3 (key: (+): For the microbial metabolites, EC50 < 5 µg mL^−1 and <10 µg mL^−1 were considered as toxic in the BSMI and ICP assays, respectively; nontoxic as (−))	< 1	3 (≈ 5.67 µM)	+ (key: LD50 rat p.o. <1000 mg kg ^–1 Classified as Toxic in vivo +.)	>400 mg/kg			
CC1=C2C(=CO[C@H](C)[C@H]2C)C(O)=C(C(=O)O)C1=O [Citrinin]	(−) 20	(+) 10 (key: (+): For the microbial metabolites, EC50 < 5 µg mL^−1 and <10 µg mL^−1 were considered as toxic in the BSMI and ICP assays, respectively; nontoxic as (−))	20 (≈ 79.9 µM)	10 (≈ 40 µM)	+ (key: LD50 rat p.o. <1000 mg kg ^–1 Classified as Toxic in vivo +.)	105 mg/kg			EC50 (boar sperm [3]; [9]): ≥ 20 µg/mL; EC50 [4, 10]: 13 µg/mL (≈ 51.9 µM)
Cc1cc(O)c2c(c1)C(=O)c1cc(O)cc(O)c1C2=O [Emodin]	(+) 4 (key: (+): For the microbial metabolites, EC50 < 5 µg mL^−1 and <10 µg mL^−1 were considered as toxic in the BSMI and ICP assays, respectively; nontoxic as (−))	(−) 45	4 (≈ 14.8 µM)	45 (≈ 167 µM)		1000 mg/kg			EC50 [5]: 3 µg/mL (≈ 11.1 µM)
CC(C)[C@H]1C(=O)O[C@H](C(C)C)C(=O)N(C)[C@@H](C(C)C)C(=O)O[C@H](C(C)C)C(=O)N(C)[C@@H](C(C)C)C(=O)O[C@H](C(C)C)C(=O)N1C [Enniatin B]	(+) 0.5 (key: (+): For the microbial metabolites, EC50 < 5 µg mL^−1 and <10 µg mL^−1 were considered as toxic in the BSMI and ICP assays, respectively; nontoxic as (−))	(−) 15	0.5 (≈ 0.781 µM)	15 (≈ 23.4 µM)	+ (key: LD50 rat p.o. <1000 mg kg ^–1 Classified as Toxic in vivo +.)	350 mg/kg			EC50 (boar sperm [3]; [9]): 0.6 µg/mL (≈ 0.938 µM); EC50 [4, 10]: 18 µg/mL (≈ 28.1 µM); EC50 [5]: 2 µg/mL (≈ 3.13 µM)
O=c1cc(O)c1=O [Moniliformin]		(−) >20			+ (key: LD50 rat p.o. <1000 mg kg ^–1 Classified as Toxic in vivo +.)	50 mg/kg	(+) 2 μg mL^–1	(−) >20 μg mL^–1	Ex Vivo BSMI 1–3d, toxic (+) / nontoxic (−), microbial metabolites (boar sperm [1]): (+) 2 (key: (+): For the microbial metabolites, EC50 < 5 µg mL^−1 and <10 µg mL^−1 were considered as toxic in the BSMI and ICP assays, respectively; nontoxic as (−)); Mitochondrial Toxicity 1d (EC50, acceleration of glycolysis and depolarization of mitochondria) [6]: (+) 2 μg mL^–1
CC(C)=C[C@H]1C[C@H](C)[C@]2(CC[C@]3(C)C[C@H]4[C@H](C(=O)C[C@@]4(C)O)/C(C=O)=C\C[C@H]32)O1 [Ophiobolin, Ophiobolin A]	(+) 0.3 (key: (+): For the microbial metabolites, EC50 < 5 µg mL^−1 and <10 µg mL^−1 were considered as toxic in the BSMI and ICP assays, respectively; nontoxic as (−))	(+) 0.1 (key: (+): For the microbial metabolites, EC50 < 5 µg mL^−1 and <10 µg mL^−1 were considered as toxic in the BSMI and ICP assays, respectively; nontoxic as (−))	0.3 (≈ 0.749 µM)	0.1 (≈ 0.25 µM)	+ (key: LD50 rat p.o. <1000 mg kg ^–1 Classified as Toxic in vivo +.)	238 mg/kg			
CCCCCCCCCCCCOS(=O)(=O)[O-].[Na+] [SDS, Sodium dodecyl sulfate]						1288 mg/kg	(+) 10 μg mL^–1	(−) 120 μg mL^–1	Ex Vivo BSMI 1–3d, toxic (+) / nontoxic (−), xenobiotic chemicals (boar sperm [1]): (+) 10 (key: (+): For the xenobiotic chemicals, EC50 values < 10 µg mL^−1 and <20 µg mL^−1 were considered as toxic in the BSMI assay and in the ICP assay, respectively; nontoxic as (−)); In Vitro ICP 2d, toxic (+) / nontoxic (−), xenobiotic chemicals [2]: (−) 120; In Vivo (toxicity to experimental animals), xenobiotic chemicals (Fish): + (key: LD50 Fish Inhaled <10 μg mL ^–1 = Toxic in vivo Marked as +.); Toxicity In Vivo LD50 Fish (Fish): 30 mg/L
CC1(C)C=Cc2c(ccc3c2[N+]([O-])=C2C(C)(C)[C@@H]4CC56CCCN5C(=O)[C@]4(NC6=O)[C@H]4N5C(=O)[C@@]67CCCN6C(=O)[C@@]56[C@H](c5c(n(O)c8c9c(ccc58)OC(C)(C)C=C9)C(C)(C)[C@@H]6C7)[C@]234)O1 [Stephacidin B]							(+) 0.3 μg mL^–1	(++) 0.3 μg mL^–1	Ex Vivo BSMI 1–3d, toxic (+) / nontoxic (−), microbial metabolites (boar sperm [1]): (+) 0.3 (key: (+): For the microbial metabolites, EC50 < 5 µg mL^−1 and <10 µg mL^−1 were considered as toxic in the BSMI and ICP assays, respectively; nontoxic as (−))
COc1cc2c(c3oc4cccc(O)c4c(=O)c13)[C@@H]1C=CO[C@@H]1O2 [Sterigmatocystin]	(−)>20	(+) 0.1 (key: (+): For the microbial metabolites, EC50 < 5 µg mL^−1 and <10 µg mL^−1 were considered as toxic in the BSMI and ICP assays, respectively; nontoxic as (−))			+ (key: LD50 rat p.o. <1000 mg kg ^–1 Classified as Toxic in vivo +.)		(−)>20 μg mL^–1	(+) 0.1 μg mL^–1	
CC(C)[C@@H]1NC(=O)[C@H](C)OC(=O)[C@@H](C(C)C)NC(=O)[C@@H](C(C)C)OC(=O)[C@H](C(C)C)NC(=O)[C@H](C)OC(=O)[C@@H](C(C)C)NC(=O)[C@@H](C(C)C)OC(=O)[C@H](C(C)C)NC(=O)[C@H](C)OC(=O)[C@@H](C(C)C)NC(=O)[C@@H](C(C)C)OC1=O [Valinomycin]						4 mg/kg			
Acrebol		(−) >10					(+) 0.1 μg mL^–1	(−) >10 μg mL^–1	Ex Vivo BSMI 1–3d, toxic (+) / nontoxic (−), microbial metabolites (boar sperm [1]): (+) 0.1 (key: (+): For the microbial metabolites, EC50 < 5 µg mL^−1 and <10 µg mL^−1 were considered as toxic in the BSMI and ICP assays, respectively; nontoxic as (−)); Mitochondrial Toxicity 1d (EC50, acceleration of glycolysis and depolarization of mitochondria) [6]: (+) 0.1 μg mL^–1
Polyethylene glycol sorbitan mono oleate [Tween 80]						>25,000 mg kg^−1	(+) 10 μg mL^–1		Ex Vivo BSMI 1–3d, toxic (+) / nontoxic (−), xenobiotic chemicals (boar sperm [1]): (+) 10 (key: (+): For the xenobiotic chemicals, EC50 values < 10 µg mL^−1 and <20 µg mL^−1 were considered as toxic in the BSMI assay and in the ICP assay, respectively; nontoxic as (−)); Response in the BSMI assay (boar sperm [1]): weak positive response; In Vitro ICP 2d, toxic (+) / nontoxic (−), xenobiotic chemicals [2]: (−) 500; In Vivo (toxicity to experimental animals), xenobiotic chemicals (Fish): −
Polyethyleneglycol monalkyl ether [Genapol X 080]						>2000 mg/kg	(+) 3 μg mL^–1	(−) 30 μg mL^–1	Ex Vivo BSMI 1–3d, toxic (+) / nontoxic (−), xenobiotic chemicals (boar sperm [1]): (+) 3 (key: (+): For the xenobiotic chemicals, EC50 values < 10 µg mL^−1 and <20 µg mL^−1 were considered as toxic in the BSMI assay and in the ICP assay, respectively; nontoxic as (−)); In Vitro ICP 2d, toxic (+) / nontoxic (−), xenobiotic chemicals [2]: (−) 30; Mitochondrial Toxicity 1d (EC50, acceleration of glycolysis and depolarization of mitochondria) [6]: (+) 5 μg mL^–1; Mitochondrial toxicity after testing with somatic cells [6]: Mitochondrial toxicity was recorded; In Vivo (toxicity to experimental animals), xenobiotic chemicals (Fish): + (key: LD50 Fish Inhaled <10 μg mL ^–1 = Toxic in vivo Marked as +.); Toxicity In Vivo LD50 Fish (Fish): 5 mg/L
Polyethyleneglycol-p-is-octylphenyl ether [Triton X –100]						500 mg/kg	(+) 1 μg mL^–1	(−) 30 μg mL^–1	Ex Vivo BSMI 1–3d, toxic (+) / nontoxic (−), xenobiotic chemicals (boar sperm [1]): (+) 1 (key: (+): For the xenobiotic chemicals, EC50 values < 10 µg mL^−1 and <20 µg mL^−1 were considered as toxic in the BSMI assay and in the ICP assay, respectively; nontoxic as (−)); In Vitro ICP 2d, toxic (+) / nontoxic (−), xenobiotic chemicals [2]: (−) 30; In Vivo (toxicity to experimental animals), xenobiotic chemicals (Fish): + (key: LD50 Fish Inhaled <10 μg mL ^–1 = Toxic in vivo Marked as +.); Toxicity In Vivo LD50 Fish (Fish): 5 mg/L
